Reference: ChEMBL document CHEMBL1201861, “Genomics of Drug Sensitity in Cancer screening data, Wellcome Trust Sanger Institute”

The molecules below were run on CTB-1 (assay: cells). Settings: Homo sapiens, CTB-1.
Format: functional, cell-based, Homo sapiens
Description: SANGER: Inhibition of human CTB-1 cell growth in a cell viability assay.
`O=S(=O)(O)c1ccc2cc(/N=N/c3cc(S(=O)(=O)O)c4cccnc4c3O)ccc2c1` showed an IC50 greater than 16 µM.

These molecules were tested on Calu-6 (assay: cells). Settings: Homo sapiens, Calu-6.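 Note: growth of human Calu-6 cells, read out by a cell viability assay, IC50 marking inhibition.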
Format: functional, cell-based, Homo sapiens
Description: SANGER: Inhibition of human Calu-6 cell growth in a cell viability assay.
Work on `O=S(=O)(O)c1ccc2cc(/N=N/c3cc(S(=O)(=O)O)c4cccnc4c3O)ccc2c1` yielded an IC50 greater than 16 µM.

What follows are molecules tested on D-502MG (assay: cells). Settings: Homo sapiens, D-502MG.
Format: functional, cell-based, Homo sapiens
Description: SANGER: Inhibition of human D-502MG cell growth in a cell viability assay.
In the case of `O=S(=O)(O)c1ccc2cc(/N=N/c3cc(S(=O)(=O)O)c4cccnc4c3O)ccc2c1`, the IC50 is reported as greater than 16 µM.

What follows are molecules tested on DB (assay: cells). Settings: Homo sapiens, DB.
Format: functional, cell-based, Homo sapiens
Description: SANGER: Inhibition of human DB cell growth in a cell viability assay.
`O=S(=O)(O)c1ccc2cc(/N=N/c3cc(S(=O)(=O)O)c4cccnc4c3O)ccc2c1` gave an IC50 greater than 16 µM.

These molecules were tested on DEL (assay: cells). Settings: Homo sapiens, DEL.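 Note: growth inhibition of the human DEL cell line, read out with a cell viability assay.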
Format: functional, cell-based, Homo sapiens
Description: SANGER: Inhibition of human DEL cell growth in a cell viability assay.
Work on `O=S(=O)(O)c1ccc2cc(/N=N/c3cc(S(=O)(=O)O)c4cccnc4c3O)ccc2c1` yielded an IC50 greater than 16 µM.

The molecules below were run on EM-2 (assay: cells). Settings: Homo sapiens, EM-2.
Format: functional, cell-based, Homo sapiens
Description: SANGER: Inhibition of human EM-2 cell growth in a cell viability assay.
With `O=S(=O)(O)c1ccc2cc(/N=N/c3cc(S(=O)(=O)O)c4cccnc4c3O)ccc2c1` the IC50 was greater than 16 µM.

What follows are molecules tested on ES5 (assay: cells). Settings: Homo sapiens, ES5.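 Note: growth inhibition of human ES5 cells, read out by a cell viability assay.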
Format: functional, cell-based, Homo sapiens
Description: SANGER: Inhibition of human ES5 cell growth in a cell viability assay.
For `O=S(=O)(O)c1ccc2cc(/N=N/c3cc(S(=O)(=O)O)c4cccnc4c3O)ccc2c1`, the IC50 was greater than 16 µM.

The molecules below were run on ES6 (assay: cells). Settings: Homo sapiens.
Format: functional, cell-based
Description: SANGER: Inhibition of human ES6 cell growth in a cell viability assay.
Molecule `O=S(=O)(O)c1ccc2cc(/N=N/c3cc(S(=O)(=O)O)c4cccnc4c3O)ccc2c1` has an IC50 greater than 16 µM.

What follows are molecules tested on ES8 (assay: cells). Settings: Homo sapiens, ES8.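 Note: growth inhibition of human ES8 cells, read out with a cell viability assay.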
Format: functional, cell-based, Homo sapiens
Description: SANGER: Inhibition of human ES8 cell growth in a cell viability assay.
`O=S(=O)(O)c1ccc2cc(/N=N/c3cc(S(=O)(=O)O)c4cccnc4c3O)ccc2c1` gave an IC50 greater than 16 µM.

Each molecule was assayed on EW-13 (assay: cells). Settings: Homo sapiens, EW-13; read-out: IC50.
Format: functional, cell-based, Homo sapiens
Description: SANGER: Inhibition of human EW-13 cell growth in a cell viability assay.
`O=S(=O)(O)c1ccc2cc(/N=N/c3cc(S(=O)(=O)O)c4cccnc4c3O)ccc2c1` was tested, and the IC50 was 5.17 µM.

Each molecule was assayed on GAK (assay: cells). Settings: Homo sapiens, GAK.
Format: functional, cell-based, Homo sapiens
Description: SANGER: Inhibition of human GAK cell growth in a cell viability assay.
For `O=S(=O)(O)c1ccc2cc(/N=N/c3cc(S(=O)(=O)O)c4cccnc4c3O)ccc2c1`, the IC50 was greater than 16 µM.

The molecules below were run on HDLM-2 (assay: cells). Settings: Homo sapiens, HDLM-2.
Format: functional, cell-based, Homo sapiens
Description: SANGER: Inhibition of human HDLM-2 cell growth in a cell viability assay.
For `O=S(=O)(O)c1ccc2cc(/N=N/c3cc(S(=O)(=O)O)c4cccnc4c3O)ccc2c1`, the IC50 was greater than 16 µM.

What follows are molecules tested on HT-144 (assay: cells). Settings: Homo sapiens, HT-144.
Format: functional, cell-based, Homo sapiens
Description: SANGER: Inhibition of human HT-144 cell growth in a cell viability assay.
Work on `O=S(=O)(O)c1ccc2cc(/N=N/c3cc(S(=O)(=O)O)c4cccnc4c3O)ccc2c1` yielded an IC50 greater than 16 µM.

The molecules below were run on IST-MEL1 (assay: cells). Settings: Homo sapiens, IST-MEL1.
Format: functional, cell-based, Homo sapiens
Description: SANGER: Inhibition of human IST-MEL1 cell growth in a cell viability assay.
In the case of `O=S(=O)(O)c1ccc2cc(/N=N/c3cc(S(=O)(=O)O)c4cccnc4c3O)ccc2c1`, the IC50 is reported as greater than 16 µM.

The molecules below were run on K5 (assay: cells). Settings: Homo sapiens, K5.
Format: functional, cell-based, Homo sapiens
Description: SANGER: Inhibition of human K5 cell growth in a cell viability assay.
Work on `O=S(=O)(O)c1ccc2cc(/N=N/c3cc(S(=O)(=O)O)c4cccnc4c3O)ccc2c1` yielded an IC50 greater than 16 µM.

What follows are molecules tested on L-428 (assay: cells). Settings: Homo sapiens, L-428.
Format: functional, cell-based, Homo sapiens
Description: SANGER: Inhibition of human L-428 cell growth in a cell viability assay.
`O=S(=O)(O)c1ccc2cc(/N=N/c3cc(S(=O)(=O)O)c4cccnc4c3O)ccc2c1` showed an IC50 greater than 16 µM.

Each molecule was assayed on LB2518-MEL (assay: cells). Settings: Homo sapiens.
Format: functional, cell-based
Description: SANGER: Inhibition of human LB2518-MEL cell growth in a cell viability assay.
With `O=S(=O)(O)c1ccc2cc(/N=N/c3cc(S(=O)(=O)O)c4cccnc4c3O)ccc2c1` the IC50 was greater than 16 µM.

The molecules below were run on LB831-BLC (assay: cells). Settings: Homo sapiens, LB831-BLC.
Format: functional, cell-based, Homo sapiens
Description: SANGER: Inhibition of human LB831-BLC cell growth in a cell viability assay.
In the case of `O=S(=O)(O)c1ccc2cc(/N=N/c3cc(S(=O)(=O)O)c4cccnc4c3O)ccc2c1`, the IC50 is reported as greater than 16 µM.

The molecules below were run on LB996-RCC (assay: cells). Settings: Homo sapiens, LB996-RCC.
Format: functional, cell-based, Homo sapiens
Description: SANGER: Inhibition of human LB996-RCC cell growth in a cell viability assay.
`O=S(=O)(O)c1ccc2cc(/N=N/c3cc(S(=O)(=O)O)c4cccnc4c3O)ccc2c1` was tested, and the IC50 was greater than 16 µM.

What follows are molecules tested on LS-123 (assay: cells). Settings: Homo sapiens, LS-123.
Format: functional, cell-based, Homo sapiens
Description: SANGER: Inhibition of human LS-123 cell growth in a cell viability assay.
Work on `O=S(=O)(O)c1ccc2cc(/N=N/c3cc(S(=O)(=O)O)c4cccnc4c3O)ccc2c1` yielded an IC50 greater than 16 µM.

What follows are molecules tested on LXF-289 cell line (assay: cells). Settings: Homo sapiens.
Format: functional, cell-based
Description: SANGER: Inhibition of human LXF-289 cell growth in a cell viability assay.
Work on `O=S(=O)(O)c1ccc2cc(/N=N/c3cc(S(=O)(=O)O)c4cccnc4c3O)ccc2c1` yielded an IC50 greater than 16 µM.

These molecules were tested on MEG-01 (assay: cells). Settings: Homo sapiens, MEG-01.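 Note: growth inhibition of MEG-01 cells, read out by a cell viability assay.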
Format: functional, cell-based, Homo sapiens
Description: SANGER: Inhibition of human MEG-01 cell growth in a cell viability assay.
For `O=S(=O)(O)c1ccc2cc(/N=N/c3cc(S(=O)(=O)O)c4cccnc4c3O)ccc2c1`, the IC50 was greater than 16 µM.

The molecules below were run on MHH-NB-11 (assay: cells). Settings: Homo sapiens, MHH-NB-11.
Format: functional, cell-based, Homo sapiens
Description: SANGER: Inhibition of human MHH-NB-11 cell growth in a cell viability assay.
Work on `O=S(=O)(O)c1ccc2cc(/N=N/c3cc(S(=O)(=O)O)c4cccnc4c3O)ccc2c1` yielded an IC50 greater than 16 µM.

These molecules were tested on ML-2 (assay: cells). Settings: Homo sapiens, ML-2.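 Note: growth inhibition of ML-2 cells, measured with a cell viability readout.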
Format: functional, cell-based, Homo sapiens
Description: SANGER: Inhibition of human ML-2 cell growth in a cell viability assay.
With `O=S(=O)(O)c1ccc2cc(/N=N/c3cc(S(=O)(=O)O)c4cccnc4c3O)ccc2c1` the IC50 was greater than 16 µM.

What follows are molecules tested on MOLT-4 (assay: cells). Settings: Homo sapiens, MOLT-4.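 Note: growth inhibition of MOLT-4 cells, determined with a cell viability readout.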
Format: functional, cell-based, Homo sapiens
Description: SANGER: Inhibition of human MOLT-4 cell growth in a cell viability assay.
Work on `O=S(=O)(O)c1ccc2cc(/N=N/c3cc(S(=O)(=O)O)c4cccnc4c3O)ccc2c1` yielded an IC50 greater than 16 µM.

The molecules below were run on MS-1 (assay: cells). Settings: Homo sapiens, MS-1.
Format: functional, cell-based, Homo sapiens
Description: SANGER: Inhibition of human MS-1 cell growth in a cell viability assay.
`O=S(=O)(O)c1ccc2cc(/N=N/c3cc(S(=O)(=O)O)c4cccnc4c3O)ccc2c1` showed an IC50 greater than 16 µM.

What follows are molecules tested on NB13 (assay: cells). Settings: Homo sapiens, NB13.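 Note: cell viability readout measuring growth inhibition of human NB13 cells.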
Format: functional, cell-based, Homo sapiens
Description: SANGER: Inhibition of human NB13 cell growth in a cell viability assay.
With `O=S(=O)(O)c1ccc2cc(/N=N/c3cc(S(=O)(=O)O)c4cccnc4c3O)ccc2c1` the IC50 was greater than 16 µM.

Each molecule was assayed on NB69 (assay: cells). Settings: Homo sapiens, NB69.
Format: functional, cell-based, Homo sapiens
Description: SANGER: Inhibition of human NB69 cell growth in a cell viability assay.
`O=S(=O)(O)c1ccc2cc(/N=N/c3cc(S(=O)(=O)O)c4cccnc4c3O)ccc2c1` showed an IC50 greater than 16 µM.

Each molecule was assayed on NCI-H209 (assay: cells). Settings: Homo sapiens, NCI-H209.
Format: functional, cell-based, Homo sapiens
Description: SANGER: Inhibition of human NCI-H209 cell growth in a cell viability assay.
`O=S(=O)(O)c1ccc2cc(/N=N/c3cc(S(=O)(=O)O)c4cccnc4c3O)ccc2c1` gave an IC50 greater than 16 µM.

These molecules were tested on NCI-H82 (assay: cells). Settings: Homo sapiens, NCI-H82.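 Note: growth inhibition of NCI-H82 cells, measured with a cell viability readout.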
Format: functional, cell-based, Homo sapiens
Description: SANGER: Inhibition of human NCI-H82 cell growth in a cell viability assay.
Molecule `O=S(=O)(O)c1ccc2cc(/N=N/c3cc(S(=O)(=O)O)c4cccnc4c3O)ccc2c1` has an IC50 greater than 16 µM.

These molecules were tested on NMC-G1 (assay: cells). Settings: Homo sapiens, NMC-G1.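 Note: growth inhibition of the NMC-G1 cell line, measured with a cell viability read-out.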
Format: functional, cell-based, Homo sapiens
Description: SANGER: Inhibition of human NMC-G1 cell growth in a cell viability assay.
Molecule `O=S(=O)(O)c1ccc2cc(/N=N/c3cc(S(=O)(=O)O)c4cccnc4c3O)ccc2c1` has an IC50 greater than 16 µM.

Each molecule was assayed on NTERA-2-cl-D1 (assay: cells). Settings: Homo sapiens, NTERA-2-cl-D1.
Format: functional, cell-based, Homo sapiens
Description: SANGER: Inhibition of human NTERA-S-cl-D1 cell growth in a cell viability assay.
For `O=S(=O)(O)c1ccc2cc(/N=N/c3cc(S(=O)(=O)O)c4cccnc4c3O)ccc2c1`, the IC50 was greater than 16 µM.

The molecules below were run on Ramos-2G6-4C10 (assay: cells). Settings: Homo sapiens, Ramos-2G6-4C10.
Format: functional, cell-based, Homo sapiens
Description: SANGER: Inhibition of human Ramos-2G6-4C10 cell growth in a cell viability assay.
`O=S(=O)(O)c1ccc2cc(/N=N/c3cc(S(=O)(=O)O)c4cccnc4c3O)ccc2c1` gave an IC50 greater than 16 µM.

Each molecule was assayed on SF-539 (assay: cells). Settings: Homo sapiens, SF-539.
Format: functional, cell-based, Homo sapiens
Description: SANGER: Inhibition of human SF539 cell growth in a cell viability assay.
Molecule `O=S(=O)(O)c1ccc2cc(/N=N/c3cc(S(=O)(=O)O)c4cccnc4c3O)ccc2c1` has an IC50 greater than 16 µM.

The molecules below were run on SHP77 (assay: cells). Settings: Homo sapiens, SHP77.
Format: functional, cell-based, Homo sapiens, SHP-77
Description: SANGER: Inhibition of human SHP-77 cell growth in a cell viability assay.
Work on `O=S(=O)(O)c1ccc2cc(/N=N/c3cc(S(=O)(=O)O)c4cccnc4c3O)ccc2c1` yielded an IC50 greater than 16 µM.

The molecules below were run on SJSA-1 (assay: cells). Settings: Homo sapiens, SJSA-1.
Format: functional, cell-based, Homo sapiens
Description: SANGER: Inhibition of human SJSA-1 cell growth in a cell viability assay.
`O=S(=O)(O)c1ccc2cc(/N=N/c3cc(S(=O)(=O)O)c4cccnc4c3O)ccc2c1` gave an IC50 greater than 16 µM.

What follows are molecules tested on SK-LMS-1 (assay: cells). Settings: Homo sapiens, SK-LMS-1.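 Note: growth inhibition of human SK-LMS-1 cells, read out with a cell viability assay.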
Format: functional, cell-based, Homo sapiens
Description: SANGER: Inhibition of human SK-LMS-1 cell growth in a cell viability assay.
Work on `O=S(=O)(O)c1ccc2cc(/N=N/c3cc(S(=O)(=O)O)c4cccnc4c3O)ccc2c1` yielded an IC50 of 9.45 µM.

What follows are molecules tested on SNB-75 (assay: cells). Settings: Homo sapiens, SNB-75.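 Note: cell viability assay measuring growth inhibition of human SNB-75 cells.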
Format: functional, cell-based, Homo sapiens
Description: SANGER: Inhibition of human SNB75 cell growth in a cell viability assay.
In the case of `O=S(=O)(O)c1ccc2cc(/N=N/c3cc(S(=O)(=O)O)c4cccnc4c3O)ccc2c1`, the IC50 is reported as greater than 16 µM.

The molecules below were run on SW684 (assay: cells). Settings: Homo sapiens, SW684; read-out: IC50.
Format: functional, cell-based, Homo sapiens
Description: SANGER: Inhibition of human SW684 cell growth in a cell viability assay.
`O=S(=O)(O)c1ccc2cc(/N=N/c3cc(S(=O)(=O)O)c4cccnc4c3O)ccc2c1` gave an IC50 greater than 16 µM.

These molecules were tested on SW 954 (assay: cells). Settings: Homo sapiens, SW 954.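 Note: growth inhibition of SW954 human cancer cells, read out as cell viability.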
Format: functional, cell-based, Homo sapiens
Description: SANGER: Inhibition of human SW954 cell growth in a cell viability assay.
With `O=S(=O)(O)c1ccc2cc(/N=N/c3cc(S(=O)(=O)O)c4cccnc4c3O)ccc2c1` the IC50 was greater than 16 µM.

The molecules below were run on SW982 (assay: cells). Settings: Homo sapiens.
Format: functional, cell-based
Description: SANGER: Inhibition of human SW982 cell growth in a cell viability assay.
In the case of `O=S(=O)(O)c1ccc2cc(/N=N/c3cc(S(=O)(=O)O)c4cccnc4c3O)ccc2c1`, the IC50 is reported as greater than 16 µM.

What follows are molecules tested on TE-1 (assay: cells). Settings: Homo sapiens, TE-1.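 Note: growth inhibition of the human TE-1 cell line, read out with a cell viability assay.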
Format: functional, cell-based, Homo sapiens
Description: SANGER: Inhibition of human TE-1 cell growth in a cell viability assay.
In the case of `O=S(=O)(O)c1ccc2cc(/N=N/c3cc(S(=O)(=O)O)c4cccnc4c3O)ccc2c1`, the IC50 is reported as greater than 16 µM.

Each molecule was assayed on A3-KAW (assay: cells). Settings: Homo sapiens, A3-KAW.
Format: functional, cell-based, Homo sapiens
Description: SANGER: Inhibition of human A3-KAW cell growth in a cell viability assay.
`O=S(=O)(O)c1ccc2cc(/N=N/c3cc(S(=O)(=O)O)c4cccnc4c3O)ccc2c1` was tested, and the IC50 was greater than 16 µM.

Each molecule was assayed on A388 (assay: cells). Settings: Homo sapiens.
Format: functional, cell-based
Description: SANGER: Inhibition of human A388 cell growth in a cell viability assay.
`O=S(=O)(O)c1ccc2cc(/N=N/c3cc(S(=O)(=O)O)c4cccnc4c3O)ccc2c1` gave an IC50 greater than 16 µM.

These molecules were tested on A704 (assay: cells). Settings: Homo sapiens.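 Note: growth inhibition of human A704 cells, read out with a cell viability assay.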
Format: functional, cell-based
Description: SANGER: Inhibition of human A704 cell growth in a cell viability assay.
`O=S(=O)(O)c1ccc2cc(/N=N/c3cc(S(=O)(=O)O)c4cccnc4c3O)ccc2c1` gave an IC50 greater than 16 µM.

Each molecule was assayed on AM-38 (assay: cells). Settings: Homo sapiens, AM-38.
Format: functional, cell-based, Homo sapiens
Description: SANGER: Inhibition of human AM-38 cell growth in a cell viability assay.
`O=S(=O)(O)c1ccc2cc(/N=N/c3cc(S(=O)(=O)O)c4cccnc4c3O)ccc2c1` gave an IC50 greater than 16 µM.

These molecules were tested on Becker (assay: cells). Settings: Homo sapiens, Becker.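 Note: growth inhibition of Becker cells, read out with a cell viability assay.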
Format: functional, cell-based, Homo sapiens
Description: SANGER: Inhibition of human Becker cell growth in a cell viability assay.
With `O=S(=O)(O)c1ccc2cc(/N=N/c3cc(S(=O)(=O)O)c4cccnc4c3O)ccc2c1` the IC50 was greater than 16 µM.

Each molecule was assayed on TE-6 (assay: cells). Settings: Homo sapiens, TE-6.
Format: functional, cell-based, Homo sapiens
Description: SANGER: Inhibition of human TE-6 cell growth in a cell viability assay.
`O=S(=O)(O)c1ccc2cc(/N=N/c3cc(S(=O)(=O)O)c4cccnc4c3O)ccc2c1` gave an IC50 greater than 16 µM.

What follows are molecules tested on TE-9 (assay: cells). Settings: Homo sapiens, TE-9.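 Note: cell growth inhibition, measured with a cell viability readout.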
Format: functional, cell-based, Homo sapiens
Description: SANGER: Inhibition of human TE-9 cell growth in a cell viability assay.
With `O=S(=O)(O)c1ccc2cc(/N=N/c3cc(S(=O)(=O)O)c4cccnc4c3O)ccc2c1` the IC50 was greater than 16 µM.

What follows are molecules tested on TGW (assay: cells). Settings: Homo sapiens, TGW.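 Note: growth inhibition of human TGW cells, read out with a cell viability assay.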
Format: functional, cell-based, Homo sapiens
Description: SANGER: Inhibition of human TGW cell growth in a cell viability assay.
In the case of `O=S(=O)(O)c1ccc2cc(/N=N/c3cc(S(=O)(=O)O)c4cccnc4c3O)ccc2c1`, the IC50 is reported as greater than 16 µM.

Each molecule was assayed on TK-10 (assay: cells). Settings: Homo sapiens, TK-10.
Format: functional, cell-based, Homo sapiens
Description: SANGER: Inhibition of human TK10 cell growth in a cell viability assay.
In the case of `O=S(=O)(O)c1ccc2cc(/N=N/c3cc(S(=O)(=O)O)c4cccnc4c3O)ccc2c1`, the IC50 is reported as greater than 16 µM.
